Test results taken from publication PMC3909264, “A Novel Acylaminoimidazole Derivative, WN1316, Alleviates Disease Progression via Suppression of Glial Inflammation in ALS Mouse Model” (PLoS ONE, 2014).

Tests used:
[1] = Pharmacokinetics of WN-compounds in mice (brain and serum concentration, HPLC); format: in vivo, mouse (C57BL/6N)
Method: Wild type mice at 8 weeks (male, C57BL/6N) were used for the analysis of CPN-9, WN1303R, WN1312, WN1315 and WN1316 pharmacokinetics. CPN-9 was suspended in 0.5% carboxymethyl cellulose (CMC)-Na (carmellose sodium, Maruishi Pharmaceutical Co., Ltd.), while WN1303R, WN1312 and WN1316 were dissolved in Milli-Q purified water (MQ water) and WN1315 was dissolved in 0.25 N HCl. CPN-9 (100 mg/kg body weight) and the four WN-compounds (50 mg/kg body weight) were injected intragastrically (i.g.). After 15 min, 30 min, 1 h, 2 h, 4 h, 6 h, and 8 h, blood was collected from heart of each mouse anesthetized with 2% isoflurane by inhalation or 4% halothane in a mixture of N2O/O2 (70∶30). Mice were thereafter perfused transcardially with physiological saline containing 10% heparin under anesthesia, and the whole brain was removed. Each blood sample was centrifuged at 1,000×g for 10 min at 4°C, and the serum fraction was collected. The brain was frozen in liquid nitrogen, and was cryopreserved until use.
We mixed serum with deproteinization buffer (0.05 M H2SO4, 2.5 M K2CO3, and […]), and collected the organic layer after centrifugation at 1,500×g for 10 min. The organic layer was mixed with 0.05 M H2SO4, and then, after centrifugation at 1,500×g for 10 min, the water layer was collected. After the addition of methanol, each serum derived sample was subjected to HPLC.
Mouse whole brain was homogenized with acetonitrile and left at −80°C for 10 min. The supernatant was collected after centrifugation at 10,000×g for 10 min at 4°C and was dried under vacuum. The dried sample was re-dissolved in methanol and mixed with two volumes of 10 mM phosphate buffer (pH7.0), after which the supernatant was collected by centrifugation at 10,000×g for 10 min at 4°C and then left at −80°C for 10 min. To further remove debris, the supernatant was filtered (0.45 µm filter), centrifuged (at 10,000×g for 10 min at 4°C), filtered (0.22 µm filter) and finally centrifuged again. Each sample solution from brain was subjected to HPLC.
The concentrations of CPN-9 and WN1316 in the serum and brain samples were determined by HPLC on a CAPCELL PAK C18 column (SHISEIDO) with 50% acetonitrile (CPN-9), 40% acetonitrile (WN1316) or 45% acetonitrile (WN1303R, WN1312, and WN1315) in 10 mM phosphate buffer (pH 7.0).

[2] = parameters: method as in PMID 23000247; details: cited from earlier work
[3] = Water solubility (stated property); format: physicochemical
[4] = C57BL/6N mice, intragastric, 100 mg/kg in 0.5% CMC-Na, n = 3, mean ± SD

- AUC0–8: Brain [1, 4]: 1.0±1.3 µg⋅h/g
- AUC0–8: Serum [1, 4]: 5.9±0.8 µg⋅h/ml
- water solubility (in words) [3]: hardly water soluble
Compound: Cc1cc(C)c(OCC(=O)Nc2nc(-c3ccccn3)cs2)c(C)c1 [CPN-9, N-(4-(2-pyridyl)(1,3-thiazol-2-yl))-2-(2,4,6-trimethylphenoxy) acetamide, reference compound]
- BBB permeability (in words) ([1]; mouse, in vivo): very poor blood-brain-barrier (BBB) permeability
- toxicity (in words) [2]: considerable toxicity
